Assay results as given in patent publication US12194033B2, “Glycine receptor modulators and methods of use” (University of Pittsburgh—Of the Commonwealth System of …, priority 2017, dated 2025).

Tests used:
CD1 mice = assay: Hargreaves test under CFA-induced hyperalgesic conditions in CD1 mice; format: in vivo; conditions: for response time for paw withdrawal compared to vehicle: 0.1 mg/kg, CD1 mice, CFA-induced hyperalgesic conditions
Description: Under CFA-induced hyperalgesic conditions, the maximum possible effect, % MPE=(response−baseline)/(cut-off time−baseline), was measured for the application of compound 1 alone (0.05 mg/kg, blue, n=12; 0.01 mg/kg, orange, n=4), morphine alone (0.1 mg/kg, green, n=8), and compound 1 with morphine at three different dosage combinations: 0.05 mg/kg compound 1 with 0.1 mg/kg morphine (light blue, n=6), 0.01 mg/kg compound 1 with 0.1 mg/kg morphine (pink, n=10), and 0.01 mg/kg compound 1 with 0.01 mg/kg morphine (red, n=4). […] Error bars designate the standard error of the mean.
0.05 mg/kg compound 1 was tested for tolerance in CFA-treated mice (red). Under CFA-induced hyperalgesic conditions (24 hours post-application of CFA), 0.05 mg/kg compound 1 was administered to CD1 mice and responses to the Hargreaves test were measured immediately after the initial injection (application time=0) and again after a repeated dose given 1.5 hours (FIG. 7A) or 24 hours (FIG. 7B) after the effects of the first dose wore off. The black circles represent the responses of naïve mice (i.e., no administration of compound 1 or CFA), and the red circles represent the responses of mice receiving compound 1 under CFA-induced hyperalgesic conditions. […] Error bars designate the standard error of the mean (n=4).
Responses of CD1 mice to the Hargreaves test were assessed after application of 0.1 mg/kg of the indicated compounds (black) or vehicle (white) under CFA-induced hyperalgesic conditions as shown in FIGS. 8A-8H. The assessed compounds were compounds 1 (8A), 2 (8B), 3 (8C), 4 (8D), 5 (8E), 6 (8F), 7 (8G), and 8 (8H). […] Error bars designate the standard error of the mean (n≥4).
Dose response curves from the Hargreaves test in mice with a CFA-inflamed left hind paw at 1.5 and 2 hr after intraperitoneal injection of compound 1. Percent Maximum Possible Effect (% MPE) was calculated from paw withdrawal latencies.
Tolerance to compound 1 (MJPY1) and compound 3 (MJPY2) was measured by repeated dosing in the Hargreaves Test. […] Mice (n=6/group) received repeated i.p. injections of vehicle or 0.1 mg/kg compound 1 (MJPY1) or compound 3 (MJPY2) once a day for 5 days. CFA inflammation was induced on day 4, and PWL was measured 0.5 hr before and every 10 min after treatment on day 5. Data were binned to 30-min blocks (mean±SEM).

mice = assay: Two-plate thermal preference test (30° C. vs 55° C.); format: in vivo; conditions: for percentage of inactive time on the hot plate (55° C.): CD1 mice, CFA, vs naïve
Description: Responses to the two-plate thermal preference test were assessed under naïve conditions and 1 hour after administration of 0.2 mg/kg compound 1, 0.1 mg/kg morphine, or 0.2 mg/kg compound 1+0.1 mg/kg morphine. Unrestrained mice were exposed to plates set to normal and hot temperatures (30° C. and 55° C., respectively). Temperature preference was measured by percentage time spent on the hot plate (55° C.) over the course of 4 minutes, where 50% indicates no preference between the two temperatures. […] Error bars designate the standard error of the mean (n≥5).
Unrestrained mice were exposed to plates set to normal and hot temperatures (30° C. and 55° C., respectively) for 10 minutes. […] Error bars designate the standard error of the mean (n=4).
The percent inactivity on the 55° C. plate (mean±SEM) is a measure of heat tolerance. Significance was assessed by one-way ANOVA with LSD post-hoc test.

[1] = 0.1 mg/kg i.p., 1 hour after injection
[2] = 0.1 mg/kg i.p., 48 hours after injection

Row | Compound | response time for paw withdrawal compared to vehicle (CD1 mice) | further results
1 | O=C(NCc1ccc(C(=O)N2CCCCC2)cc1)c1ccc2c3c(cccc13)CC2 [compound 2, N-{[4-(piperidine-1-carbonyl)phenyl]methyl}-1,2-dihydroacenaphthylene-5-carboxamide] | increase in the response time | 
2 | NC(=O)CNC(=O)c1ccc(CNC(=O)c2ccc3c4c(cccc24)CC3)cc1 [compound 3, N-({4-[(carbamoylmethyl)-carbamoyl]phenyl}methyl)-1,2-dihydroacenaphthylene-5-carboxamide] | increase in the response time | percentage of inactive time on the hot plate (55° C.) (mice; [1]): significantly increased; percentage of inactive time on the hot plate (55° C.) (mice; [2]): significantly increased; analgesic action compared with morphine (percent inactivity on the 55° C. plate) (mice; 0.1 mg/kg i.p., male CD1 mice, 24 hr after CFA, 1 hr after treatment, same dose): better than morphine; tolerance after repeated dosing (PWL) (CD1 mice; 0.1 mg/kg i.p. once a day for 5 days, CFA on day 4): negligible tolerance
3 | CN(C)C(=O)c1cccc(CNC(=O)c2ccc3c4c(cccc24)CC3)c1 [compound 4, N-[[3-(dimethylcarbamoyl)-phenyl]methyl]-1,2-dihydroacenaphthylene-5-carboxamide] | increase in the response time | percentage of inactive time on the hot plate (55° C.) (mice; [1]): increase in the inactive time; percentage of inactive time on the hot plate (55° C.) (mice; [2]): no effect
4 | NC(=O)c1ccc(CNC(=O)c2ccc3c4c(cccc24)CC3)cc1 [compound 5, N-[(4-carbamoylphenyl)-methyl]-1,2-dihydroacenaphthylene-5-carboxamide] | increase in the response time | 
5 | O=C1CN(C(=O)c2ccc(CNC(=O)c3ccc4c5c(cccc35)CC4)cc2)CCN1 [compound 6, N-{[4-(3-oxopiperazine-1-carbonyl)phenyl]methyl}-1,2-dihydroacenaphthylene-5-carboxamide] | increase in the response time | 
6 | CCN(Cc1ccc(C(=O)N(C)C)cc1)C(=O)c1ccc2c3c(cccc13)CC2 [compound 7, N-{[4-(dimethylcarbamoyl)-phenyl]methyl}-N-ethyl-1,2-dihydroacenaphthylene-5-carboxamide] | increase in the response time | 
7 | CCNC(=O)c1ccc(CNC(=O)c2ccc3c4c(cccc24)CC3)cc1 [compound 8, N-{[4-(ethylcarbamoyl)-phenyl]methyl}-1,2-dihydroacenaphthylene-5-carboxamide] | increase in the response time | 
8 | CN1CC[C@]23c4c5ccc(O)c4O[C@H]2[C@@H](O)C=C[C@H]3[C@H]1C5 [morphine, reference compound] |  | percentage time spent on the hot plate (55° C.) compared to naïve mice (mice; normal nociception, 1 hour after 0.2 mg/kg compound 1, 0.1 mg/kg morphine, or both, 4 minutes): no significant analgesic response
